We go through four compounds from US8039639B2, “Kinase inhibitors and methods of use thereof” (Array BioPharma Inc., priority 2006, dated 2011).

Residues, ends and D or L forms follow the SMILES beside them. *: point of attachment. Cbz = O=C(OCc1ccccc1)*

One data set can be described thus: Solubility determination. In kind it is physicochemical.
In another data set the target is p38α (Homo sapiens, UniProt Q16539). Put plainly: in-house p38α radioactive kinase assay using ATF-2 as a substrate. The following applies: ATF-2 substrate. The data set is classed as biochemical. The protocol: p38 activity was assayed at room temperature in a 100 μL reaction containing 5 nM activated p38α enzyme and 1 μM ATF-2 (Activating Transcription Factor 2 fusion protein) as the substrate in 25 mM HEPES (pH 7.4), 100 μM Vanadate, 1 mM DTT, 10 mM MgCl2 and 10 μM [γ-^33P]-ATP (˜0.1 μCi P^33/reaction). The reaction was terminated after 30-40 minutes by adding 25% TCA, allowed to stand for 5 minutes, and then transferred directly to a GF-B membrane filter plate. The filter was washed twice for 30 seconds with 0.5% phosphoric acid using a Tomtec Mach III Automated Harvestor. After washing, the vacuum was continued for 30 seconds to dry the filter. Approximately 30 μL of scintillant was added per well to the filter plate and then read in a Liquid Scintillation Counter (Packard TopCount HTS).

A further data set deals with Abl (Homo sapiens, UniProt P00519). Put plainly: protein kinase IC50 determination (ATP at Km). The settings on record: ATP concentration at Km. The data set is classed as biochemical.
The target in a further data set is Tie2 (Homo sapiens, UniProt Q02763). Put plainly: protein kinase IC50 determination (ATP at Km). In kind it is biochemical. The following applies: ATP concentration at Km.
For a further data set, the system named is RPMI 8226. Briefly: RPMI 8226 cell viability (CellTiter Blue). In kind it is cell-based. The settings on record: Homo sapiens; RPMI 8226, 72 hours; read-out: Proliferation IC50. The method, then: Cell viability was then measured using CellTiter Blue (Promega) to determine IC50 values for each compound (Table 8). […] MG-132 produced an IC50 that was within historical ranges of in-house testing (Table 8).
(Resazurin is reduced to fluorescent resorufin, in cell work by metabolically active cells.)

In the next data set the test system is K562 cells. Put plainly: K562 subcutaneous tumor model (BCR-Abl-driven tumors). The data set is classed as in vivo, Female Scid-beige mice. The following applies: K562 tumors, PO ×7, dosed as Compound 74. The method, then: Test compounds were administered by oral gavage at the indicated doses and schedules when tumors reached 200±50 mm^3 in size. […] Tumor size and body weight were monitored throughout the study.

Sequence of p38α (Q16539 whole entry, the tested form may be a part): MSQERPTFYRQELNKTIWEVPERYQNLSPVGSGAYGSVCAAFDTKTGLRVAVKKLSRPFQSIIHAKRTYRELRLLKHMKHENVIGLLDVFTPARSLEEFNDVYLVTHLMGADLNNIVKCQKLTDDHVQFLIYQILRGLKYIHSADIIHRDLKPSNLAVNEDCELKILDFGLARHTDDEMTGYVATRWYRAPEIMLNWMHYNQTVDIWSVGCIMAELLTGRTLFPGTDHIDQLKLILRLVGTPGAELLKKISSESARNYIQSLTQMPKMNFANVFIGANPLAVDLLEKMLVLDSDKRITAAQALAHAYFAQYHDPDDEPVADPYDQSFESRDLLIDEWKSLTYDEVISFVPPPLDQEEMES
Sequence of Tie2 (Q02763 23-1124, species assumed): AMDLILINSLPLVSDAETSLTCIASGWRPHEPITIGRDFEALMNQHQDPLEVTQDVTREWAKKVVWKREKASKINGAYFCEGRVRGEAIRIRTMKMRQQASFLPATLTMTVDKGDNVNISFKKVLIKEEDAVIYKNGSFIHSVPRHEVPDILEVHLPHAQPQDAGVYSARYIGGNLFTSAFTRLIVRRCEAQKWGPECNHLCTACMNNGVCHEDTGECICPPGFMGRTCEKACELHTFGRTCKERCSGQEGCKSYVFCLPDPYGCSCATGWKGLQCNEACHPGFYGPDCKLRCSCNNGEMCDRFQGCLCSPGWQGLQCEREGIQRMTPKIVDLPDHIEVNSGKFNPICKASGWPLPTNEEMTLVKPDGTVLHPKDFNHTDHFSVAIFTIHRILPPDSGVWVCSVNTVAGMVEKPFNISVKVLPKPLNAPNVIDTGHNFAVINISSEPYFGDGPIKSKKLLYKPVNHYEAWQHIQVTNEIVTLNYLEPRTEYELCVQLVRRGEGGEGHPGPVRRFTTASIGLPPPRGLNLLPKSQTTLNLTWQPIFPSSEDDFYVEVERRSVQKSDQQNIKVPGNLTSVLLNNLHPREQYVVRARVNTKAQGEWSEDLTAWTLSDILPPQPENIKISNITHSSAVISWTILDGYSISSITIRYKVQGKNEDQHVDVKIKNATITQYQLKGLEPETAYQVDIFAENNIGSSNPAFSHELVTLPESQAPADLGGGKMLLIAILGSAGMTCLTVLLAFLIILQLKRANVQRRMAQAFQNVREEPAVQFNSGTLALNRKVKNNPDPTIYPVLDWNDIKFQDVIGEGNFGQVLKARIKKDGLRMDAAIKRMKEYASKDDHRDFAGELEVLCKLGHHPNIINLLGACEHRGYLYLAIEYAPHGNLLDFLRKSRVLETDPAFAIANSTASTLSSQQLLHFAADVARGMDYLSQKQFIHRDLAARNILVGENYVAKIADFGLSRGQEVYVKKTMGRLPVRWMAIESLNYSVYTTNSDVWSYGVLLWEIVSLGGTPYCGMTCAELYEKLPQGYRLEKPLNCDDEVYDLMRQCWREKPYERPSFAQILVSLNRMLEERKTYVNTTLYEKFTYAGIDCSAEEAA
Sequence of Abl (P00519 whole entry, species assumed): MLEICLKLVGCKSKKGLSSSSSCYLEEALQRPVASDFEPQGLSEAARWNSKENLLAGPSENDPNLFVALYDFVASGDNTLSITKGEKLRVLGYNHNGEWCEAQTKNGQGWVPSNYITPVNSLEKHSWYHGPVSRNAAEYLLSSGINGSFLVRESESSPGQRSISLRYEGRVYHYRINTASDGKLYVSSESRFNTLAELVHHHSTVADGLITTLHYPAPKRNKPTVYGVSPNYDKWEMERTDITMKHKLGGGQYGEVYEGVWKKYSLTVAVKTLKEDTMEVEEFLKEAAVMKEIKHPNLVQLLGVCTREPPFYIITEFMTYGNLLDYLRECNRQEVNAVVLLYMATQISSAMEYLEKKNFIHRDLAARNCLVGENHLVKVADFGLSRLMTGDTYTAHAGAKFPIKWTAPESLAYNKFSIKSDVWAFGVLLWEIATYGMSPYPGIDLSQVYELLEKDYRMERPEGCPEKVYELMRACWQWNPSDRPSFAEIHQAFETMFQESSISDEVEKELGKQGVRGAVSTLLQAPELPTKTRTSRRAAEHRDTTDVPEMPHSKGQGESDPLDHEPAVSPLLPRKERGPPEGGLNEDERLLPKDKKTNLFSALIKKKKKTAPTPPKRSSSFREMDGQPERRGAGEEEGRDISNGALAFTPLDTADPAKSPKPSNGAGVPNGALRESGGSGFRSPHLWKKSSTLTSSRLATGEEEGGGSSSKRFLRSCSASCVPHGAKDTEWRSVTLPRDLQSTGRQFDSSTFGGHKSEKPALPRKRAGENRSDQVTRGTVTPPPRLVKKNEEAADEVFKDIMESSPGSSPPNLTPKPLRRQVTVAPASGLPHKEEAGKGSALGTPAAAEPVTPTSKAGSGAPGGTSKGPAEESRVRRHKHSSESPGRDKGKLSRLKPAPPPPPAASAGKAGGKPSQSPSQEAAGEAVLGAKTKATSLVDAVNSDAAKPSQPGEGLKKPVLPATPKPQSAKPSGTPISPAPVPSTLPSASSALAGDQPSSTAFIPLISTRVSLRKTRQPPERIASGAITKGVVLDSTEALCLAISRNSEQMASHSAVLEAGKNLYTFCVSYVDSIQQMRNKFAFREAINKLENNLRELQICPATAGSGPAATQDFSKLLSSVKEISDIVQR

For the compound `Cc1ccc(-n2nc(C(C)(C)C)cc2NC(=O)NCc2cc(F)ccc2Oc2ccc3c(cnn3C)c2)cc1` [Example 94], the solubility – broadly, the dissolved amount per volume that the medium holds – was below 1 µg/mL in “Solubility determination” (pH 6.5, aqueous buffer) and below 1 µg/mL in “Solubility determination” (pH 7.4, aqueous buffer). For the same compound, the IC50 on p38α was below 2 nM; against Abl, 10 nM; against Tie2, 4 nM.
Consider `Cn1nc(C(C)(C)C)cc1NC(=O)NCc1cc(F)ccc1Oc1ccc2c(cnn2CC(C)(C)O)c1` [Example 138], for which the solubility in the data set “Solubility determination” (pH 6.5, aqueous buffer) was below 1 µg/mL; in the data set “Solubility determination” (pH 7.4, aqueous buffer), below 1 µg/mL. Also, the IC50 is below 2 nM at p38α, above 500 nM on Abl and above 500 nM on Tie2.
Take `CC(C)C[C@@H](C=O)NC(=O)[C@H](CC(C)C)NC(=O)[C@H](CC(C)C)NC(=O)OCc1ccccc1` [MG-132, reference compound] (Cbz-Leu-Leu-Leu-aldehyde): in the data set with RPMI 8226, the IC50 was determined as 114 nM.
The compound `Cc1ccc(-n2nc(C(C)(C)C)cc2NC(=O)NCc2cc(F)ccc2Oc2ccc3c(cnn3CCOP(=O)(O)O)c2)cc1` [Compound 74, 2-(5-(2-(3-(3-tert-butyl-1-p-tolyl-1H-pyrazol-5-yl)ureido)methyl)-4-fluorophenoxy)-1H-indazol-1-yl)ethyl dihydrogenphosphate] gave a solubility in the data set “Solubility determination” (pH 1.2, simulated gastric fluid) below 1000 µg/mL. Further, the “% Regression” value in the data set on K562 cells (30 mg/kg BID) is given as “tumor stasis”; in the data set on K562 cells (100 mg/kg BID), 94%; in the data set on K562 cells (100 mg/kg QD), “tumor stasis”.
